# Results from publication PMC8911579, “(−)-Naringenin 4′,7-dimethyl Ether Isolated from Nardostachys jatamansi Relieves Pain through Inhibition of Multiple Channels” (Molecules, 2022).
# Assays:
# [1] = system: acutely isolated mouse small-diameter DRG neurons; test: whole-cell current-clamp, action potential firing in DRG neurons; type: cell-based; details: for action potential amplitude: 200 pA current injection, 500 ms, control 98.00 ± 6.19 mV
# From the text: To investigate the underlying mechanism of (−)-NRG-DM-mediated analgesic activity, whole-cell current-clamp technology was applied to examine the effects of (−)-NRG-DM on the action potential firing in acutely isolated mouse small-diameter DRG neurons. The action potentials were evoked by a current injection of 200 pA for a 500 ms period. The threshold was defined by the first amplitude at which an action potential with a membrane potential larger than 0 mV was produced, and the amplitude was defined as the peak relative to the resting membrane potential. […] The amplitudes were reduced from 98.00 ± 6.19 mV to 95.00 ± 5.65 mV, 93.40 ± 8.27 mV, 86.80 ± 9.75 mV, and 74.40 ± 7.08 mV after perfusion of 1 μM, 3 μM, 10 μM, and 30 μM (−)-NRG-DM, respectively (Figure 4C, n = 5). Current threshold, the injection current required to elicit a single all-or-none action potential, was determined by applying 500 ms depolarizing currents of increasing magnitude. […] The inhibitory effects of (−)-NRG-DM on the firing frequency and the amplitudes of action potentials were partially reversible after washout.
# (§1) Dorsal root ganglia (DRG) were dissected from male C57BL/6 mice aged 4~6 weeks. The ganglia were first cut into small pieces and then digested at 37 °C for 20 min in DMEM containing 1 mg/mL collagenase type I and 0.25 mg/mL trypsin (Sigma-Aldrich). Subsequently, the digested small fragments were terminated and resuspended with DMEM/F12 growth medium (Gibco) supplemented with 10% fetal bovine serum (FBS) (Gibco). Finally, the dissociated DRG neurons were seeded onto 24-well plates with poly-L-lysine-coated coverslips and placed in a 37 °C, 5% CO2 incubator for at least 1 h before electrophysiological experiments.
# [2] = system: native Nav currents in DRG neurons; test: whole-cell patch-clamp, native sodium currents in DRG neurons; type: cell-based, mouse
# Protocol: A reduction in amplitudes of action potentials manifested that (−)-NRG-DM may inhibit native sodium currents, which are mainly involved in the rising phase of an action potential. To record native sodium currents in acutely isolated DRG neurons, a 50 ms test pulse depolarized to −20 mV from a holding potential of −90 mV was applied. […] To understand how (−)-NRG-DM inhibited Nav channels, the effects of 30 µM compound (−)-NRG-DM on Nav channel kinetics were further characterized. […] In contrast to the lack of effect on the Nav channel activation, (−)-NRG-DM caused a depolarization shift of the steady-state inactivation. The V1/2 value was shifted from −65.72 ± 1.74 mV to −55.34 ± 2.14 mV by 30 µM (−)-NRG-DM (Figure 6G).
# as §1
# [3] = system: formalin-induced inflammatory pain; test: formalin-induced mouse inflammatory pain model; type: in vivo, ICR mice; details: phase I and phase II
# Protocol: The formalin test is a classical inflammatory pain model which represents somatic pain. Intraplantar injection of formalin results in a typical two-stage nociceptive behavior, which is characterized by licking and biting of the injected paw. The first phase (0~10 min) mainly reflects nociceptive pain, while the second phase (11~60 min) represents the inflammatory responses. In our study, we tested the effects of (−)-NRG-DM on formalin-induced inflammatory pain in mice. (−)-NRG-DM at 30 mg/kg and 50 mg/kg body weight were individually intraperitoneally administrated 30 min before injection of 1% formalin solution.
# Adult male ICR mice weighing 20 ± 2 g were randomly divided into 3 groups (n = 10 for each group) and acclimatized in a transparent observation chamber for at least 30 min before the experiment. Mice were intraperitoneally administrated with vehicle or (−)-NRG-DM (30 or 50 mg/kg) 30 min prior to formalin injection. Then, 1% formalin solution (20 μL per site) was subcutaneously injected into the plantar of the left hind paw to induce acute inflammatory pain. Immediately, mice were put back into the observation chambers. Nociception caused by formalin was assessed by scoring painful behaviors and licking time over a period of 60 min. […]
# [4] = system: Kv channels in DRG neurons; test: activation kinetics of Kv currents in DRG neurons; type: cell-based, mouse; details: in presence of 10 µM; control −6.43 ± 1.21 mV
# From the text: The currents in mouse DRG neurons can be separated into IA and IK. They could be distinguished by applying voltage steps from a holding potential of −50 mV, at which IA was almost completely inactivated, while IK remained unchanged. Thereby, IA could be separated by subtracting IK from the total potassium currents. According to these electrophysiological characteristics, the effects of (−)-NRG-DM on potassium currents were examined (Figure 5A). […] Additionally, the effects of (−)-NRG-DM on the kinetics of the Kv channels were further characterized. The Kv currents were elicited by multiple 1500 ms depolarization pulses ranging from −80 mV to +90 mV in 10 mV increments from a holding potential of −80 mV. […] The values of V1/2 in the absence and presence of 10 µM (−)-NRG-DM were −6.43 ± 1.21 mV and −8.08 ± 2.02 mV, respectively (Figure 5D).
# Nav1.7 channel = Nav1.7 channel (Homo sapiens, UniProt Q15858); test: whole-cell patch-clamp, Nav1.7 stably expressed in HEK293 cells
# Nav1.7 channel, sequence (Q15858 whole entry): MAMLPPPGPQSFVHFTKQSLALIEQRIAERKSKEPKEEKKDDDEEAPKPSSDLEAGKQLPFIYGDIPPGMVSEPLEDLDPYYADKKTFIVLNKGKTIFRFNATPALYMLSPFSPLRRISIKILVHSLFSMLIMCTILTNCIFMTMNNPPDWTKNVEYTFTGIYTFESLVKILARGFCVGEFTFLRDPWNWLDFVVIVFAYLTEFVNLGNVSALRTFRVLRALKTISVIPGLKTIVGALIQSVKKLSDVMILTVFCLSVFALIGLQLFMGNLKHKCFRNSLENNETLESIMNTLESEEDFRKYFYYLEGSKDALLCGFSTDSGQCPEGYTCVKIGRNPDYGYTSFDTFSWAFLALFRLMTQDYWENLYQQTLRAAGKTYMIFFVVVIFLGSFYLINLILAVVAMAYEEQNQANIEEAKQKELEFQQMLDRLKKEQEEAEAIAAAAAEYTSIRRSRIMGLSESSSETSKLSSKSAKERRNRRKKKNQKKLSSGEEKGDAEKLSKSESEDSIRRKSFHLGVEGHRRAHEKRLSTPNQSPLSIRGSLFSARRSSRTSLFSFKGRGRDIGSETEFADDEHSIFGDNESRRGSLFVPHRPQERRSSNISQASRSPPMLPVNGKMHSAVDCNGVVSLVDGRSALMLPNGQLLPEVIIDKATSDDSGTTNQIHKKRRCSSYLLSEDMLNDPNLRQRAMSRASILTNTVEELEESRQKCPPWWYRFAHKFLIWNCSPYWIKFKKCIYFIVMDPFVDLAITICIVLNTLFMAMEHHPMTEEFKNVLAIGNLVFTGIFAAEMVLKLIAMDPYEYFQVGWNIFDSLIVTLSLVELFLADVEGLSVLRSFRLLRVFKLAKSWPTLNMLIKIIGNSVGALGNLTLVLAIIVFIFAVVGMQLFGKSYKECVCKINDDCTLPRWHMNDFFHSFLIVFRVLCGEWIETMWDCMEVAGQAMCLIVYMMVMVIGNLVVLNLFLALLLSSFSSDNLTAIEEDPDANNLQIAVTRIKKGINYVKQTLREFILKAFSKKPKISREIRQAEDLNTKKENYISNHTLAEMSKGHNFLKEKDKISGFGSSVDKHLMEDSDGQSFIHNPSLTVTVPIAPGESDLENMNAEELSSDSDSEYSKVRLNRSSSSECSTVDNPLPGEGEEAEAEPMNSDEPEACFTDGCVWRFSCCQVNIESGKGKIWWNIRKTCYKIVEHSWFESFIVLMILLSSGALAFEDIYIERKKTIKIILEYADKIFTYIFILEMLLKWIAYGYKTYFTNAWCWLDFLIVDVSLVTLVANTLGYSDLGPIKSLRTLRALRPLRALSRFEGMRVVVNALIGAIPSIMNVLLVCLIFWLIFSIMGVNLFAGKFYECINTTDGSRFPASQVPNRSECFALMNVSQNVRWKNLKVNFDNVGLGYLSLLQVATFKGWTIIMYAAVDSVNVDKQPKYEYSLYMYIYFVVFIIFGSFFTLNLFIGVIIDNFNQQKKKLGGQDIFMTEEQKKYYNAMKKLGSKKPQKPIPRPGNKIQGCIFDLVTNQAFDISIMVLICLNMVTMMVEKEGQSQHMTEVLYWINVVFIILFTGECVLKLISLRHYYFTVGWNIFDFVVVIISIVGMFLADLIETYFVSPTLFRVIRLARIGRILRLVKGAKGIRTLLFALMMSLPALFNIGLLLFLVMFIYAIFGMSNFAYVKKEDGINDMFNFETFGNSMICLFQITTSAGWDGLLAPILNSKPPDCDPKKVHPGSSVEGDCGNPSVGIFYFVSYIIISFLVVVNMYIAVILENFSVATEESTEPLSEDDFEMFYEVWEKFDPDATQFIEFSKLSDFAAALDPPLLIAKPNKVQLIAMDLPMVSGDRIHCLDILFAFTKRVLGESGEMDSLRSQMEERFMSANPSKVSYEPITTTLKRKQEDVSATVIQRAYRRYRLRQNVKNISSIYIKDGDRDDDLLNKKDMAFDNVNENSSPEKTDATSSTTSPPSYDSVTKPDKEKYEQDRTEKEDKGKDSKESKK
smiles,measurement,setting,value
"COc1ccc([C@H]2CC(=O)c3c(O)cc(OC)cc3O2)cc1 [(−)-NRG-DM, (−)-naringenin 4′,7-dimethyl ether]",concentration at which significant reduction in number of action potentials started,[1],10 µM
same,action potential amplitude,[1]; 1 μM,95.00 ± 5.65 mV
same,action potential amplitude,[1]; 3 μM,93.40 ± 8.27 mV
same,action potential amplitude,[1]; 10 μM,86.80 ± 9.75 mV
same,action potential amplitude,[1]; 30 μM,74.40 ± 7.08 mV
same,firing frequency of DRG neurons,[1]; 1~30 μM,dose-dependently inhibited the firing frequency
same,"V1/2 of activation, total Nav currents","[2]; 30 μM, control −15.34 ± 0.58 mV",−15.23 ± 0.56 mV
same,"V1/2 of steady-state inactivation, total Nav currents","[2]; 30 µM, control −65.72 ± 1.74 mV",−55.34 ± 2.14 mV
same,IC50,"[2]; Mus musculus, DRG neuron, n = 5",34.78 ± 0.14 µM
same,reduction in INa,[2]; at plasma concentration from pharmacokinetic study (around 7 µM),around 28%
same,painful behaviors (licking time and pain score),[3]; 30 mg/kg i.p. 30 min before 1% formalin,only had a significant influence in phase I
same,painful behaviors (licking time and overall pain score),[3]; 50 mg/kg i.p. 30 min before 1% formalin,significantly attenuated painful behaviors
same,V1/2 of activation of Kv currents,[4],−8.08 ± 2.02 mV
same,inhibitory ratio,Nav1.7 channel; 30 µM,39 ± 5%
same,IDrug/IControl,"Nav1.7 channel; 30 μM, HEK293",0.61 ± 0.05
same,selectivity Nav1.7 vs Nav1.8,"Nav1.7 channel; 30 μM, no significant difference between Nav1.7 and Nav1.8",non-selective Nav channel inhibitor
